# Reference: patent US9284272B2, “Inhibitors of histone methyltransferase G9a” (AbbVie Inc., priority 2014, dated 2016)
# Where “and” joins values, the source holds several entries; their conditions need not be identical. Equal values may be shown once. Read-outs that look alike come from different tables or passages of the source.
# Tests used:
# [1] = Cytotoxicity, CellTiter Glo; assay type: cell-based; settings: human, MHH-65-1 cells, 7-day proliferation, neural crest derived lines
# [2] = Cytotoxicity, CellTiter Glo; assay type: cell-based; settings: human, H929 cells, 5-day proliferation
# [3] = Cytotoxicity, CellTiter Glo; assay type: cell-based; settings: human, RS4;11 cells, 5-day proliferation
# [4] = Cytotoxicity, CellTiter Glo; assay type: cell-based; settings: human, CAPO-ES1 cells, 7-day proliferation, neural crest derived lines
# [5] = Cytotoxicity, CellTiter Glo; assay type: cell-based; settings: human, HL-60 cells, 5-day proliferation
# [6] = Cytotoxicity, CellTiter Glo; assay type: cell-based; settings: human, DaoY cells, 7-day proliferation, neural crest derived lines
# H3K9me2 [7] = test: H3K9me2 levels by AlphaLISA in HT1080 cells; assay type: cell-based; settings: 48 h, 0-1,000 nM
# [8] = Cytotoxicity, CellTiter Glo; assay type: cell-based; settings: human, Kasume-1 cells, 5-day proliferation
# [9] = Cytotoxicity, CellTiter Glo; assay type: cell-based; settings: human, ZR7350 cells, 7-day proliferation, neural crest derived lines
# [10] = Cytotoxicity, CellTiter Glo; assay type: cell-based; settings: human, LNCap cells, 5-day proliferation
# [11] = Cytotoxicity, CellTiter Glo; assay type: cell-based; settings: human, L-363 cells, 5-day proliferation
# [12] = Cytotoxicity, CellTiter Glo; assay type: cell-based; settings: human, IMR-32 cells, 12-day proliferation, neural crest derived lines
# in vitro = assay type: cell-based; settings: PH-1; 7-day proliferation, neural crest derived lines; read-out: IC50 cytotoxicity
# [13] = Cytotoxicity, CellTiter Glo; assay type: cell-based; settings: human, RPMI8226 cells, 5-day proliferation
# [14] = Cytotoxicity, CellTiter Glo; assay type: cell-based; settings: human, US2OS cells, 7-day proliferation, neural crest derived lines
# [15] = Cytotoxicity, CellTiter Glo; assay type: cell-based; settings: human, TC-71 cells, 7-day proliferation, neural crest derived lines
# [16] = PK/PD study, plasma and tissue concentrations; assay type: in vivo, SCID/bg mice; settings: 30 mg/kg/day osmotic mini-pump, samples at 2, 7, 14 days
# From the text: Specifically, subcutaneous MV4;11 xenografts were implanted in SCID/bg mice and allowed to grow to 200 mm^3. […] In particular, by day 14, dimethylation of lysine 9 of histone H3 in the tumor tissue was reduced by 46 percent as compared to the vehicle.
# [17] = Cytotoxicity, CellTiter Glo; assay type: cell-based; settings: human, OPM2 cells, 5-day proliferation
# [18] = Cytotoxicity, CellTiter Glo; assay type: cell-based; settings: human, THP-1 cells, 5-day proliferation
# [19] = Cytotoxicity, CellTiter Glo; assay type: cell-based; settings: human, PA-1 cells, 7-day proliferation, neural crest derived lines
# [20] = Cytotoxicity, CellTiter Glo; assay type: cell-based; settings: human, SK-N-MC cells, 7-day proliferation, neural crest derived lines
# H3K9me2 [21] = test: Cellular immunostaining (In-Cell Western), H3K9Me2 antibody immunofluorescence in PC3 cells; assay type: cell-based, human; settings: for H3K9me2 % inhibition, single well of triplicate / inhibition at 0.03 µM / inhibition at 0.1 µM / inhibition at 0.3 µM / inhibition at 1 µM / inhibition at 3 µM: 72 hours; for inhibition at 0.03 µM / inhibition at 0.1 µM / inhibition at 0.3 µM / inhibition at 1 µM / inhibition at 3 µM: Homo sapiens, PC-3, 72 h
# Method: For comparison, the known G9a inhibitor UNC0638 (see structure in FIG. 1) was evaluated in this study concurrently.
# Human PC3 cells (ATCC, Manassas, Va.) were grown in RPMI+10% Fetal Bovine Serum and plated at 5,000 cells per well in a 96-well plate. The following day compounds and DMSO controls were added in triplicate at the indicated concentrations. Cells were fixed following incubation at 37° C. for 72 hours with 10% formaldehyde and then permeabilized with 0.1% Triton X-100. Cells were then washed with PBS and blocked with 0.1% BSA/PBS solution. Mouse anti-H3K9me2 (1:200, AbCam #1220, Cambridge, Mass.) and rabbit anti-Histone H3 (1:500, Cell Signaling Technology #4499, Danvers, Mass.) primary antibodies in 0.3% BSA were then added together to each well and incubated overnight at 4° C. The following day cells were washed in PBS-T (PBS with 0.1% Tween) followed by addition of anti-mouse (IR800) and anti-rabbit (IR700) secondary antibodies (LI-COR Biosciences, Lincoln, Nebr.) and incubated for one hour at room temperature. Cells were then washed with PBS-T followed by PBS and liquid was removed from all wells. The plate was scanned using both the 700 nm (anti-rabbit detection) and 800 nm (anti-mouse detection) channels on the Odyssey Imaging System (LI-COR Biosciences, Lincoln, Nebr.). Data was quantified using the LI-COR imaging suite and graphed as % inhibition H3K9me2/total H3/well compared to DMSO control wells. Wells treated in triplicate were averaged for each indicated concentration and error bars represent the standard deviation (n=3).
# [22] = test system: HL-60 acute promyelocytic cells; test: Differentiation, proliferation, viability and cell cycle of HL-60 cells, 4 days; assay type: cell-based; settings: 0-10 μM
# Method: Cells were then fixed, stained with an anti-CD11b antibody and analyzed by flow cytometry (FIG. 6A).
# Cell cycle analysis (PI staining) of HL-60 cells following the 4 day treatment at the indicated concentrations (i.e., 0 μM, 0.1 μM, 0.3 μM, 1 μM, 3 μM, and 10 μM) was also performed (FIG. 6C).
# [23] = Cytotoxicity, CellTiter Glo; assay type: cell-based; settings: human, DU145 cells, 5-day proliferation
# [24] = test system: human peripheral blood mononucleated cells (PBMCs); test: Viability of PBMCs (Caspase-Glo 3/7, CellTiter Glo); assay type: cell-based; settings: 0-10 uM, 48 h
# Method: Following treatment, Caspase 3/7 activity (i.e., a marker of apoptosis) was assessed by the Caspase-Glo 3/7 assay system (FIG. 7A), and cell viability was assessed by CellTiter Glo assay (FIG. 7B).
# [25] = Cytotoxicity, CellTiter Glo; assay type: cell-based; settings: A-201 cells, 12-day proliferation, neural crest derived lines
smiles,measurement,setting,value
"COc1cc2c(cc1OCCCN1CCCC1)N=C(N)C21CCC1 [Example 7, 5′-methoxy-6′-(3-(pyrrolidin-1-yl)propoxy)spiro[cyclobutane-1,3′-indol]-2′-amine]",IC50 at 7 day,[1],> 10 µM
same,IC50 at 5 day,[2],> 10 µM
same,IC50 at 5 day,[3],> 10 µM
same,IC50 at 7 day,[4],> 10 µM
same,IC50 at 5 day,[5],> 10 µM
same,IC50 at 7 day,[6],> 10 µM
same,H3K9me2 reduction compared with UNC0638,H3K9me2 [7],equivalent effects on H3K9me2 reduction
same,IC50 at 5 day,[8],> 10 µM
same,IC50 at 7 day,[9],> 10 µM
same,IC50 at 5 day,[10],> 10 µM
same,IC50 at 5 day,[11],> 10 µM
same,IC50 at 12 day,[12],> 10 µM
same,IC50 at 7 day,in vitro,> 10 µM
same,IC50 at 5 day,[13],> 10 µM
same,IC50 at 7 day,[14],> 10 µM
same,IC50 at 7 day,[15],> 10 µM
same,accumulation in tumor tissue (as well as liver and muscle tissue),[16],significant accumulation
same,IC50 at 5 day,[17],> 10 µM
same,IC50 at 5 day,[18],> 10 µM
same,IC50 at 7 day,[19],> 10 µM
same,IC50 at 7 day,[20],9.7 µM
same,reduction of cellular levels of H3K9Me2,H3K9me2 [21]; 3 μM,~50%
same,"H3K9me2 % inhibition, single well of triplicate",H3K9me2 [21]; 0.03 uM,15.08% and 10.18%
same,"H3K9me2 % inhibition, single well of triplicate",H3K9me2 [21]; 0.1 uM,24.63% and 27.83%
same,"H3K9me2 % inhibition, single well of triplicate",H3K9me2 [21]; 0.3 uM,34.47% and 40.35%
same,"H3K9me2 % inhibition, single well of triplicate",H3K9me2 [21]; 1 uM,43.83% and 45.11%
same,"H3K9me2 % inhibition, single well of triplicate",H3K9me2 [21]; 3 uM,47.77% and 48.92%
same,inhibition at 0.03 µM,"H3K9me2 [21]; 0.03 uM, n=3, read-out: H3K9me2 % inhibition, average",12%
same,inhibition at 0.03 µM,"H3K9me2 [21]; 0.03 uM, read-out: H3K9me2 % inhibition, single well of triplicate",10.8%
same,inhibition at 0.1 µM,"H3K9me2 [21]; 0.1 uM, n=3, read-out: H3K9me2 % inhibition, average",24.3%
same,inhibition at 0.1 µM,"H3K9me2 [21]; 0.1 uM, read-out: H3K9me2 % inhibition, single well of triplicate",20.6%
same,inhibition at 0.3 µM,"H3K9me2 [21]; 0.3 uM, n=3, read-out: H3K9me2 % inhibition, average",37.1%
same,inhibition at 0.3 µM,"H3K9me2 [21]; 0.3 uM, read-out: H3K9me2 % inhibition, single well of triplicate",36.6%
same,inhibition at 1 µM,"H3K9me2 [21]; 1 uM, n=3, read-out: H3K9me2 % inhibition, average",44.4%
same,inhibition at 1 µM,"H3K9me2 [21]; 1 uM, read-out: H3K9me2 % inhibition, single well of triplicate",44.2%
same,inhibition at 3 µM,"H3K9me2 [21]; 3 uM, n=3, read-out: H3K9me2 % inhibition, average",47.5%
same,inhibition at 3 µM,"H3K9me2 [21]; 3 uM, read-out: H3K9me2 % inhibition, single well of triplicate",45.9%
same,"levels of total histone 3, H3K27Me3, H3K36Me2, H3K4me2, H3K4me3 and H3K9me3",H3K9me2 [21]; similar conditions,unaltered
same,cell viability as measured by total histone H3,H3K9me2 [21]; versus no treatment,No difference in cell viability
same,cell cycle analysis (PI staining),[22],increased numbers of cells were in the G1 phase
same,cell proliferation (CellTiter Glo),[22],inhibited proliferation of the HL-60 cells
same,cell viability (trypan blue exclusion),[22],largely unaffected
same,"differentiation (CD11b, flow cytometry)",[22],induced differentiation of the HL-60 cells
same,IC50 at 5 day,[23],> 10 µM
same,effect on PBMC viability (Caspase 3/7 activity and CellTiter Glo),[24],no effect on cell viability
same,IC50 at 12 day,[25],> 10 µM
